In US20260184669A1, “LIPID COMPOUND AND COMPOSITION FOR DELIVERY OF ACTIVE SUBSTANCE” (KOREA RESEARCH INSTIUTE OF BIOSCIENCE AND BIOTECHNOLOGY, priority 2022, published 2026):

Columns and labels:
[1] = Size, polydispersity index and surface charge of mRNA-LNP (Malvern Zetasizer Nano ZS90); type: physicochemical; details: for PDI / size (nm) Number: mRNA-LNP made with the ionizable lipid at its optimal formulation (Table 2); for size (nm) Number: diluted with PBS to 1 μg/mL mRNA; for Zeta (mV): surface charge of mRNA-LNP made with the ionizable lipid at its optimal formulation (Table 2)
Procedure: Each mRNA-LNPs produced in Example 27 was diluted with PBS to a final mRNA concentration of 1 μg/mL. The size, polydispersity index (PDI), and surface charge of the mRNA-LNPs were then measured using a Malvern Zetasizer Nano ZS90 (Malvern Instruments, UK).
For particles intended for systemic administration, such as via blood vessels, the particle size must be less than 200 nm in order to pass through the endothelial capillaries of the liver. In addition, the size distribution is considered uniform only when the PDI is 0.3 or less, which enables consistent and efficient therapeutic effects (Non-patent document 3 [Danaei, M. et al). Pharmaceutics 2018, 10, 57]).

[2] = mRNA encapsulation efficiency (Quant-IT RiboGreen RNA assay); type: physicochemical; details: mRNA encapsulation efficiency of mRNA-LNP made with the ionizable lipid; average of two measurements
Procedure: The mRNA encapsulation efficiency (EE, %) of LNPs containing mRNA was measured using the Quant-IT™ RiboGreen® RNA assay kit (Invitrogen, USA).
The diluted samples were added to each well of a 96-well plate. Group A (without Triton X-100) was supplemented with 50 μL of 1×TE buffer, while Group B (with Triton X-100) was supplemented with 50 μL of 1×TE buffer containing 2% Triton-X 100. To release the encapsulated mRNA, the LNPs were treated with Triton-X 100 and incubated at 37° C. for 10 minutes. Subsequently, 100 μL of ribogreen reagent was added to each well. The fluorescence intensities of Group A and Group B were measured using a multi-plate reader (λex 480 nm, λem 520 nm), and mRNA encapsulation efficiency (%) was calculated using Equation 1 below. The encapsulation efficiency for each LNP was determined as the average of two independent measurements.

[3] = test system: female C57BL/6 mice; assay: Protein expression efficiency of fLuc mRNA-LNPs after intramuscular injection (IVIS whole-body luminescence); type: in vivo; details: for Total flux 1 hour / Total flux 3 hours / Total flux 6 hours / Total flux 48 hours / Total flux 72 hours / Total flux: fLuc mRNA-LNP, intramuscular injection, luminescence at injection site, mice; for Total flux 1 hour: 1 hour after administration; for Total flux 3 hours: 3 hours after administration; for Total flux 6 hours: 6 hours after administration; for Total flux 48 hours: 48 hours after administration; for Total flux 72 hours: 72 hours after administration; for Total flux: after administration; for Fold increase in total flux at 3 h, MC3: relative to control LNP formulated with MC3; for Fold increase in total flux at 3 h, MC3 / Fold increase in total flux at 3 h, SM-102: 3 hours after intramuscular injection; for Fold increase in total flux at 3 h, SM-102: relative to control LNP formulated with SM-102
Procedure: fLuc mRNA-LNPs formulated using various ionizable lipids were prepared according to the method described in Example 27 and administered in vivo via intramuscular (I. M.) or intravenous (IV.) injection to compare the resulting protein expression efficiency in vivo. As a control, EGFP mRNA-LNPs formulated with commercially available ionizable lipids MC3 or SM-102 were used. All mRNA-LNPs were administered at equal mRNA doses per body weight across different concentration groups (n≥4).
Specifically, the dose of mRNA-LNPs was adjusted to 0.1-0.5 mg/kg of body weight, and the formulation was administered via I.M. or I.V. injection to female C57BL/6 mice (6-10 weeks old, Orient Bio, Korea) Subsequently, […], whole-body luminescence images were acquired using an in vivo imaging system (IVIS Lumina III, PerkinElmer, Walzam, MA, USA). To assess protein expression levels, 200 μL of D-luciferin (15 mg/mL) was administered via intraperitoneal (I.P.) injection 10 minutes prior to imaging. During image acquisition, the animals were anesthetized by inhalation of 3% isoflurane in 97% medical grade oxygen. In addition, the acquired luminescence images were quantitatively analyzed using imaging software (Living Image Software Version 4.4; PerkinElmer, USA).
After intramuscular injection of the fLuc mRNA-LNPs, the luminescence intensity at the injection site was measured over time.
Furthermore, the luminescence intensity at the injection site 3 hours after intramuscular injection was measured, and the relative protein expression efficiency was compared to that of control LNPs formulated with MC3 or SM-102.

[4] = Stability of mRNA-LNPs according to storage temperature and duration; type: physicochemical; details: for Normalized EE % D-1 / Size (nm) D-1 / PDI D-1: day 1; for Normalized EE % D-7 / PDI D-7 / Size (nm) D-7: day 7; for Normalized EE % D-30 / PDI D-30 / Size (nm) D-30: day 30
Procedure: Stability of fLuc mRNA-LNPs produced using various ionizable lipids according to the method of Example 27, was assessed by storing the LNPs at 4° C. and 25° C. At 1, 7, and 30 days post-manufacture, the size, PDI, and encapsulation efficiency (EE) of each mRNA-LNPs samples were measured using the methods described in Experimental Examples 2 and 3.

[5] = test system: CCL2 mRNA level in HEK-293T cells; details: human
[6] = test system: CCL3 mRNA level in HEK-293T cells; details: human
[7] = test system: IL-1β mRNA level in HEK-293T cells; details: human
[8] = test system: IL-6 mRNA level in HEK-293T cells; details: human

| Structure (SMILES) | PDI [1] | size (nm) Number [1] [nm] | Zeta (mV) [1] [mV] | EE (%) [2] [%] | Total flux 1 hour [3] | Total flux 3 hours [3] | Total flux 6 hours [3] | Total flux 48 hours [3] | Total flux 72 hours [3] | Total flux [3] | Fold increase in total flux at 3 h, MC3 [3] | Fold increase in total flux at 3 h, SM-102 [3] | Normalized EE % D-1 ([4]; fLuc mRNA-LNP stored at 4° C.) [%] | Size (nm) D-1 ([4]; fLuc mRNA-LNP stored at 4° C.) [nm] | Normalized EE % D-7 ([4]; fLuc mRNA-LNP stored at 4° C.) [%] | PDI D-7 ([4]; fLuc mRNA-LNP stored at 4° C.) | Size (nm) D-7 ([4]; fLuc mRNA-LNP stored at 4° C.) [nm] | Normalized EE % D-1 ([4]; fLuc mRNA-LNP stored at 25° C.) [%] | PDI D-1 ([4]; fLuc mRNA-LNP stored at 25° C.) | Size (nm) D-1 ([4]; fLuc mRNA-LNP stored at 25° C.) [nm] | further results |
| --- | --- | --- | --- | --- | --- | --- | --- | --- | --- | --- | --- | --- | --- | --- | --- | --- | --- | --- | --- | --- | --- |
| CCCCCCCCCCCOC(=O)CCCCCN(CCCCCCCC(=O)OC(CCCCCCCC)CCCCCCCC)CC(O)CCCCNC(=O)c1ccn(C)c1 (stereo not shown) [Compound 19, Heptadecan-9-yl 8-((2-hydroxy-6-(1-methyl-1H-pyrrole-3-carboxamido)hexyl) (6-oxo-6-(undecyloxy)hexyl)amino)octanoate] | 0.193 | 185 | −5.68 | 93 | 3.16E+07 | 5.15E+07 | 3.82E+07 | 1.12E+06 | 5.38E+05 | 8.29E+06 | 4.17 | 0.46 | 93.1 | 184.7 | 90.6 | 0.122 | 161.2 | 93.1 | 0.193 | 184.7 | Normalized EE % D-30 ([4]; fLuc mRNA-LNP stored at 4° C.): 87.2%; PDI D-30 ([4]; fLuc mRNA-LNP stored at 4° C.): 0.071; Size (nm) D-30 ([4]; fLuc mRNA-LNP stored at 4° C.): 177.4 nm; Normalized EE % D-7 ([4]; fLuc mRNA-LNP stored at 25° C.): 88.1%; PDI D-7 ([4]; fLuc mRNA-LNP stored at 25° C.): 0.107; Size (nm) D-7 ([4]; fLuc mRNA-LNP stored at 25° C.): 172.5 nm; Normalized EE % D-30 ([4]; fLuc mRNA-LNP stored at 25° C.): 88.3%; PDI D-30 ([4]; fLuc mRNA-LNP stored at 25° C.): 0.159; Size (nm) D-30 ([4]; fLuc mRNA-LNP stored at 25° C.): 171.7 nm; CCL2 Average [5]: 0.91; CCL3 Average [6]: 1.04; IL-1β Average [7]: 1.07; IL-6 Average [8]: 0.89 |
| CCCCCCCCCCCOC(=O)CCCCCN(CCCCCCCC(=O)OC(CCCCCCCC)CCCCCCCC)CC(O)CCCCNC(=O)c1c(O)ccn1C (stereo not shown) [Compound 24, Heptadecan-9-yl 8-((2-hydroxy-6-(3-hydroxy-1-methyl-1H-pyrrole-2-carboxamido)hexyl)(6-oxo-6-(undecyloxy)hexyl)amino)octanoate] | 0.114 | 137 | −7.89 | 90 | 6.70E+06 | 3.49E+07 | 4.45E+07 | 3.86E+06 | 3.66E+06 | 7.85E+06 | 2.82 | 0.31 | 89.7 | 136.9 | 90.5 | 0.114 | 123.7 | 89.7 | 0.114 | 136.9 | Normalized EE % D-7 ([4]; fLuc mRNA-LNP stored at 25° C.): 89.6%; PDI D-7 ([4]; fLuc mRNA-LNP stored at 25° C.): 0.163; Size (nm) D-7 ([4]; fLuc mRNA-LNP stored at 25° C.): 113.5 nm; CCL2 Average [5]: 0.96; CCL3 Average [6]: 1.36; IL-1β Average [7]: 0.99; IL-6 Average [8]: 0.87 |
| CCCCCCCCCCCOC(=O)CCCCCN(CCCCCCCC(=O)OC(CCCCCCCC)CCCCCCCC)CC(O)CCCCNC(=O)c1cccn1C (stereo not shown) [Compound 18, Heptadecan-9-yl 8-((2-hydroxy-6-(1-methyl-1H-pyrrole-2-carboxamido)hexyl) (6-oxo-6-(undecyloxy)hexyl)amino)octanoate] | 0.145 | 125 | −1.04 | 88 | 1.63E+06 | 7.75E+06 | 1.56E+07 | 1.54E+05 | 1.96E+05 | 1.70E+06 | 0.63 | 0.07 | 88.0 | 124.6 | 85.3 | 0.064 | 121.4 | 88.0 | 0.145 | 124.6 | Normalized EE % D-30 ([4]; fLuc mRNA-LNP stored at 4° C.): 87.6%; PDI D-30 ([4]; fLuc mRNA-LNP stored at 4° C.): 0.106; Size (nm) D-30 ([4]; fLuc mRNA-LNP stored at 4° C.): 126.6 nm; Normalized EE % D-7 ([4]; fLuc mRNA-LNP stored at 25° C.): 85.6%; PDI D-7 ([4]; fLuc mRNA-LNP stored at 25° C.): 0.016; Size (nm) D-7 ([4]; fLuc mRNA-LNP stored at 25° C.): 126.1 nm; Normalized EE % D-30 ([4]; fLuc mRNA-LNP stored at 25° C.): 87.0%; PDI D-30 ([4]; fLuc mRNA-LNP stored at 25° C.): 0.125; Size (nm) D-30 ([4]; fLuc mRNA-LNP stored at 25° C.): 127.5 nm |
| CCCCCCCCCCCOC(=O)CCCCCN(CCCCCCCC(=O)OC(CCCCCCCC)CCCCCCCC)CC(O)CCCCNC(=O)c1[nH]ccc1O (stereo not shown) [Compound 21, Heptadecan-9-yl 8-((2-hydroxy-6-(3-hydroxy-1H-pyrrole-2-carboxamido)hexyl)(6-oxo-6-(undecyloxy)hexyl)amino)octanoate] | 0.155 | 112 | −4.55 | 92 | 1.98E+07 | 1.29E+08 | 9.56E+07 | 3.51E+06 | 1.66E+06 | 1.25E+07 | 10.42 | 1.14 | – | – | – | – | – | – | – | – | protein expression compared to the control group (SM-102) ([3]; 3 hours post intramuscular injection, in words): significantly higher protein expression; CCL2 Average [5]: 0.63; CCL3 Average [6]: 1.82; IL-1β Average [7]: 1.18; IL-6 Average [8]: 1.39 |
